Laboratory results taken from patent US11266624B2, “CRM1 inhibitors reduce primary and acquired resistance of EGFR inhibitors in lung cancer cells” (Texas Tech University System, priority 2018, dated 2022).
Where two headings read alike, the source gives them in different places. Marks after values point to notes of the source that are not given here.

How the values were obtained:
NSCLC cells [1] = conditions: cited from earlier work
NSCLC cells [2] = conditions: cited from earlier work; remark: listed apart in the source
A549 [3] = conditions: A549, KRAS-mutant NSCLC cell line; cited from earlier work
[4] = system: snail-transduced primary human mammary epithelial cells (HEMCs); conditions: 24-72 hrs treatment; cited from earlier work
A549GLR = assay: cells
From the text: (§1) Cell lines and reagents. The NSCLC cell lines A549 and H460 were purchased from American Type Culture Collection (ATCC).
(§2) Cell viability assay. […] Experiments were repeated independently three times.
(§3) Statistical analyses. […] One-way ANOVA was used to determine the difference in the analytical results of flow cytometry, qRT-PCR, Western bot, wound healing assay, anchorage-independent growth assay, transwell invasion assay, and Bio-Plex multiplex immunoassay among groups followed by a Fisher's LSD test. Differences with p<0.05 were considered statistically significant.

A549GR = assay: cells
From the text: as §1, §2, §3

A549 [5] = assay: cells
From the text: as §1, §2, §3

H460 = assay: MTT cell viability assay in H460; conditions: 0.5 nM LMB
From the text: as §1, §2, §3

A549 [6] = assay: Analysis of cell cycle by flow cytometry in A549; type: cell-based, human; conditions: 48 hrs
From the text: Analysis of cell cycle by flow cytometry. […] Each sample was run in triplicate and each experiment was repeated three times.

A549 [7] = assay: Western blot of EGFR signaling and survival pathways in A549; type: cell-based, human
Method: Western blot analyses. […] Relative densitometric digital analysis for bands of targeted proteins was determined using Image J and normalized by the intensity of the housekeeping gene, α-tubulin.

A549 [8] = conditions: A549 (p53 wide type), 48 hrs; read-out: LMB IC50; cited from earlier work
H522 = H522 (p53-mutant); read-out: LMB IC50; cited from earlier work
H358 = H358 (p53 null); read-out: LMB IC50; cited from earlier work
[9] = single therapeutic agent; cited from earlier work
[10] = system: NSCLC cell lines (A549, H522, and H358) and BEAS-2B; conditions: A549, H522, H358 vs BEAS-2B; cited from earlier work
[11] = Homo sapiens, A549, read-out: IC50 of afatinib
[12] = 12 μM gefitinib (alone or + 0.5 nM LMB)
[13] = 24 μM gefitinib (alone or + 0.5 nM LMB)

**Q.** With COc1cc(-c2ncn(/C=C\C(=O)OC(C)C)n2)cc(C(F)(F)F)c1 [KPT-185] as the molecule, how does the “Synergistic cytotoxic effects with EGFR TKIs” value (NSCLC cells [1]) read?
**A.** no synergistic cytotoxic effects

**Q.** And the Cell cycle arrest (NSCLC cells [2])?
**A.** arrested NSCLC cells in the G1 phase

**Q.** And the “Response of A549 to treatment” value (A549 [3])?
**A.** not responsive

**Q.** And the “Effect on EMT” value [4]?
**A.** reverse EMT

**Q.** Which “Response of A549 to treatment” value (A549 [3]) does the source give for O=C(/C=C\n1cnc(-c2cc(C(F)(F)F)cc(C(F)(F)F)c2)n1)NNc1cnccn1 [KPT-330, Selinexor] here?
**A.** not responsive

**Q.** What about the “Effect on EMT” value [4] of the same molecule?
**A.** reverse EMT

**Q.** Which “Cytotoxic effect (cell viability)” value (A549GLR) does the source give for CCC(=C/[C@H](C)C/C=C/C(C)=C/[C@@H](C)C(=O)[C@@H](C)[C@H](O)[C@@H](C)C/C(C)=C/C(=O)O)/C=C/[C@@H]1OC(=O)C=C[C@@H]1C [LMB, Leptomycin B] here?
**A.** 88±5 % of control

**Q.** What about the “Cytotoxic effect (cell viability)” value (A549GR) of the same molecule?
**A.** 96±3 % of control

**Q.** What about the “Cytotoxic effect (cell viability)” value (A549 [5]) of the same molecule?
**A.** 89±4 % of control

**Q.** And the “Cytotoxic effect (cell viability)” value (H460)?
**A.** 92±5 % of control

**Q.** And the “Cell cycle (%) G0/G1” value (A549 [6]; 0.5 nM LMB alone)?
**A.** 57.9 ± 3.1 ^b %

**Q.** And the “Cell cycle (%) G2/M” value (A549 [6]; 0.5 nM LMB alone)?
**A.** 24.4 ± 0.6 ^b %

**Q.** And the “Cell cycle (%) Pre-G1” value (A549 [6]; 0.5 nM LMB alone)?
**A.** 13.5 ± 2.7 ^b %

**Q.** And the “Cell cycle (%) S” value (A549 [6]; 0.5 nM LMB alone)?
**A.** 3.6 ± 1.2 ^b %

**Q.** What about the “Relative protein expression level of Akt” value (A549 [7]; 0.5 nM LMB alone, 48 hrs, A549, control 100.0±0) of the same molecule?
**A.** 86±2

**Q.** What about the p21 expression (A549 [7]; A549, 48 hrs, LMB vs control, gefitinib+LMB vs gefitinib alone) of the same molecule?
**A.** dramatically increased

**Q.** And the IC50 (A549 [8])?
**A.** 13.1 nM

**Q.** And the IC50 (H522)?
**A.** 5.7 nM

**Q.** What about the IC50 (H358) of the same molecule?
**A.** 0.5 nM

**Q.** What about the “Toxicities in phase I trial” value [9] of the same molecule?
**A.** gastrointestinal toxicities like malaise and anorexia

**Q.** And the “Effect on EMT” value [4]?
**A.** reverse EMT

**Q.** And the “Cell growth inhibition, cancer vs normal cells” value [10]?
**A.** remarkable cell growth inhibition in NSCLC cell lines (A549, H522, and H358) but not normal human lung epithelial cells (BEAS-2B)

**Q.** With CN(C)C/C=C/C(=O)Nc1cc2c(Nc3ccc(F)c(Cl)c3)ncnc2cc1O[C@H]1CCOC1 [afatinib] as the molecule, how does the IC50 (A549GLR; [11]) read?
**A.** 8 ± 1.5 µM

**Q.** What about the IC50 (A549GR; [11]) of the same molecule?
**A.** 20 ± 2.7 µM

**Q.** And the IC50 (A549 [5]; [11])?
**A.** 6 ± 1.2 µM

**Q.** Which “Cell cycle (%) G0/G1” value (A549 [6]; [12]) does the source give for COc1cc2ncnc(Nc3ccc(F)c(Cl)c3)c2cc1OCCCN1CCOCC1 [gefitinib] here?
**A.** 68.0 ± 2.9 ^a %

**Q.** And the “Cell cycle (%) G2/M” value (A549 [6]; [12])?
**A.** 19.9 ± 2.2 ^a %

**Q.** And the “Cell cycle (%) Pre-G1” value (A549 [6]; [12])?
**A.** 2.1 ± 0.4 ^a %

**Q.** What about the “Cell cycle (%) S” value (A549 [6]; [12]) of the same molecule?
**A.** 9.7 ± 2.4 ^a %

**Q.** What about the “Cell cycle (%) G0/G1” value (A549 [6]; [13]) of the same molecule?
**A.** 84.0 ± 0.9 ^b %

**Q.** And the “Cell cycle (%) G2/M” value (A549 [6]; [13])?
**A.** 7.9 ± 0.6 ^b %

**Q.** And the “Cell cycle (%) Pre-G1” value (A549 [6]; [13])?
**A.** 4.0 ± 1.3 ^b %

**Q.** What about the “Cell cycle (%) S” value (A549 [6]; [13]) of the same molecule?
**A.** 3.4 ± 0.3 ^b %
